Consider three compounds from patent US20230029486A1, “A METHOD FOR ENHANCING THE PHARMACOKINETICS OR INCREASING THE PLASMA CONCENTRATION OF METHYL 3-((METHYLSULFONYL)AMINO)-2-(((4-PHENYLCYCLOHEXYL)OXY)METHYL)PIPERIDINE-1-CARBOXYLATE OR A SALT THEREOF WITH AN INHIBITOR OF CYTOCHROME P450” (TAKEDA PHARMACEUTICAL COMPANY LIMITED, priority 2020, published 2023).

Read-outs that look alike come from different tables or passages of the source.

One series has as its system CYP3A. The experiment in a line: Midazolam as in vivo probe for human CYP3A activity under cobicistat. The following applies: 0.5 mg midazolam oral with 150 mg cobicistat QD, Day 7 and Day 10, versus 1 mg midazolam alone.
The test system of the next series is nonhuman primates. The following applies: cited from earlier work.
The test system of a further series is healthy mice. The following applies: cited from earlier work.
Series [1] concerns rodent model of narcolepsy. The following applies: cited from earlier work.
The conditions of series [2]: intravenous single dose studies, healthy volunteers and NT1 patients; cited from earlier work.
A short description of series [3]: Phase 1 open-label study: single-dose plasma pharmacokinetics of Compound A with and without cobicistat. The format is in vivo, human. The following applies: for DNAUCinf112 (Day 12) / DNAUClast112 (Day 12) / DNCmax112 (Day 12): 14 mg Compound A oral + MD 150 mg cobicistat; for DNAUCinf112 (Day 12) / DNAUClast112 (Day 12) / DNCmax112 (Day 12) / DNAUCi nf 112Ratio (Day 12/Day 3) / DNAUCla st 112Ratio (Day 12/Day 3) / DNCma x 112Ratio (Day 12/Day 3) / DNAUCinf112 (Day 3) / DNAUClast112 (Day 3) / DNCmax112 (Day 3): n=15; for DNAUCi nf 112Ratio (Day 12/Day 3) / DNAUCla st 112Ratio (Day 12/Day 3) / DNCma x 112Ratio (Day 12/Day 3): 14 mg oral + cobicistat versus 112 mg oral alone, dose-normalized. An excerpt:
The purpose of this study was to evaluate the effect of cobicistat on Compound A. The primary goal was to evaluate whether cobicistat can boost plasma concentrations of oral Compound A in humans and therefore, can be used in combination with Compound A as part of an oral dose regimen. The magnitude of this intentional drug-drug interaction (DDI) is also quantified. This was a non-randomized, open-label, fixed-sequence study in healthy male and female (women of non-childbearing potential [WONCBP]) subjects. […] Predose blood samples for cobicistat PK were also collected on Days 7, 9, 10, and 11. […] PK blood samples for cobicistat were collected predose on Day 12 and up until 24 hours post cobicistat dosing and at 24-hour post Day 13 cobicistat dosing. Plasma pharmacokinetic parameters of Compound A after oral administration with and without cobicistat as follows • Maximum observed concentration (Cmax). • Area under the concentration-time curve from time 0 to infinity, calculated using the observed value of the last quantifiable concentration (AUCinf). • Area under the concentration-time curve from time 0 to the time of the last quantifiable concentration (AUClast). […] Plasma pharmacokinetic parameters of Compound A after oral administration with and without cobicistat (Cmax, AUCinf and AUClast) were calculated.

A short description of series [4]: Safety and tolerability of single oral dose of Compound A with and without cobicistat. The following applies: single oral dose of Compound A with steady state cobicistat, healthy adult subjects. The class given is in vivo, human. As for the experimental part: · To evaluate the safety and tolerability of a single oral dose of Compound A with and without cobicistat.
Safety was assessed by monitoring for adverse events (AEs), vital signs, safety 12-lead electrocardiograms (ECGs), safety laboratory assessments, pulse oximetry, C-SSRS (Columbia Suicide Severity Rating Scale), and physical examinations throughout the study.

The mark [5] stands for this setting: 14 mg Compound A oral + QD 150 mg cobicistat compared to 14 mg IV alone (9-hour IV infusion).
[6] abbreviates: 14 mg Compound A oral + QD 150 mg cobicistat versus 112 mg oral alone, dose-normalized to 112 mg.
[7] abbreviates: 112 mg Compound A oral alone compared to 14 mg Compound A IV alone.
Where [8] appears, read: Geom Mean, dose-normalized to 112 mg.
[9] abbreviates: Geom Mean, 112 mg Compound A oral alone.
The mark [10] stands for this setting: Mean, dose-normalized to 112 mg.
Setting [11] is: Mean, 112 mg Compound A oral alone.

Protocol for CYP3A: Midazolam is a benzodiazepine derivative that is exclusively metabolized by the CYP3A enzymatic pathway and therefore, was used as an in vivo probe for human CYP3A activity.
On Day 1, subjects received 1 mg midazolam orally and pharmacokinetic (PK) blood samples for midazolam (and its metabolite 1-hydroxy (1-OH) midazolam) were collected predose and up until 24 hours postdose to establish baseline cytochrome P450 (CYP) 3A activity.
On Days 7 and 10, 0.5 mg midazolam were administered orally (30 minutes after the cobicistat dose) and PK blood for midazolam and 1-OH midazolam were collected on each of these days, predose and up until 24 hours post midazolam dosing.
Blood PK sampling for midazolam and its metabolite (1-hydroxymidazolam): • Study Day 1: predose (prior to midazolam administration), 0.5, 1, 1.5, 2, 4, 6, 8, 12 hours postdose • Study Day 2: 24 hours post Day 1 dosing and prior to start of Compound A IV infusion • Study Day 7: predose (prior to cobicistat and midazolam administration), 0.5, 1, 1.5, 2, 4, 6, 8, 12 hours post midazolam dosing • Study Day 8: 24 hours post Day 7 midazolam dosing and prior to cobicistat administration • Study Day 10: predose (prior to cobicistat and midazolam administration), 0.5, 1, 1.5, 2, 4, 6, 8, 12 hours post midazolam dosing • Study Day 11: 24 hours post Day 10 midazolam dosing and prior to cobicistat administration

For `Cc1ncc2n1-c1ccc(Cl)cc1C(c1ccccc1F)=NC2` [midazolam], the “midazolam Cmax, increase with cobicistat” value with CYP3A is on record as “approximately 5 fold”.
On to `COC(=O)N1CCCC(NS(C)(=O)=O)C1COC1CCC(c2ccccc2)CC1` (stereo not shown) [methyl 3-((methylsulfonyl)amino)-2-(((4-phenylcyclohexyl)oxy)methyl)piperidine-1-carboxylate], for which the wakefulness entry with nonhuman primates and in the series with healthy mice was “promoted wakefulness” throughout. The improving wakefulness entry in series [1] is on record as “significant effects”. In addition, in series [1], the reducing cataplexy-like symptoms result is listed as “significant effects”. Moreover, the safety and tolerability entry in series [2] was “safe and well-tolerated”.
Take `COC(=O)N1CCC[C@H](NS(C)(=O)=O)[C@@H]1CO[C@H]1CC[C@@H](c2ccccc2)CC1` [Compound A, methyl (2R,3S)-3-((methylsulfonyl)amino)-2-(((cis-4-phenylcyclohexyl)oxy)methyl)piperidine-1-carboxylate]: in series [3] (14 mg Compound A IV alone), the “mean t1/2z” value came to 3.7 h. The “mean t1/2z” value in series [3] (14 mg Compound A oral + QD 150 mg cobicistat) is ~ 8 hours. In series [3] (setting [5]), the “geometric mean dose-normalized AUC∞, increase over IV” value was 2.8 fold and the “geometric mean dose-normalized Cmax, increase over IV” value turned out to be 7.9 fold. In series [3] (setting [6]), the “increase of geometric LSM AUClast” value is roughly 109 fold, the “increase of geometric LSM AUC∞” value is given as roughly 109 fold and the “increase of geometric LSM Cmax” value was “approximately 50 fold”. Moreover, the “dose-normalized Cmax, AUCinf and AUClast of plasma Compound A, Day 12 versus Day 3” value in series [3] (14 mg oral + MD 150 mg cobicistat versus 112 mg oral alone) is “much higher”. For the same compound, in series [3] (112 mg Compound A oral alone), the “mean t1/2z” value worked out at 4.9 h. Further, in series [3] (setting [7]), the “geometric mean dose-normalized AUC∞, lower than IV” value is recorded as roughly 97% and the “geometric mean dose-normalized Cmax, lower than IV” value is “approximately 84%”. Besides, in series [3] (setting [8]), the “DNAUCinf112 (Day 12)” value is 7623 ng*hr/mL/112 mg Compound A, the “DNAUClast112 (Day 12)” value is given as 7504 ng*hr/mL/112 mg Compound A and the “DNCmax112 (Day 12)” value was found to be 2253 ng/mL/112 mg Compound A. In addition, in series [3] (Geom Mean), the “DNAUCi nf 112Ratio (Day 12/Day 3)” value turned out to be 10942%, the “DNAUCla st 112Ratio (Day 12/Day 3)” value is 10871% and the “DNCma x 112Ratio (Day 12/Day 3)” value was found to be 5028%. Moreover, in series [3] (setting [9]), the “DNAUCinf112 (Day 3)” value is 69.67 ng*hr/mL/112 mg Compound A, the “DNAUClast112 (Day 3)” value is 69.02 ng*hr/mL/112 mg Compound A and the “DNCmax112 (Day 3)” value was 44.81 ng/mL/112 mg Compound A. In addition, in series [3] (setting [10]), the “DNAUCinf112 (Day 12)” value is 8448 ng*hr/mL/112 mg Compound A and the “DNAUClast112 (Day 12)” value was 8231 ng*hr/mL/112 mg Compound A. Also, the “DNCmax112 (Day 12)” value in series [3] (Mean, dose-normalized to 112 mg, plasma, healthy subjects) turned out to be 2335 ng/mL/112 mg Compound A. Moreover, in series [3] (Mean), the “DNAUCi nf 112Ratio (Day 12/Day 3)” value is listed as 14349%, the “DNAUCla st 112Ratio (Day 12/Day 3)” value turned out to be 14385% and the “DNCma x 112Ratio (Day 12/Day 3)” value is 8290%. Besides, in series [3] (setting [11]), the “DNAUCinf112 (Day 3)” value is listed as 94.59 ng*hr/mL/112 mg Compound A and the “DNAUClast112 (Day 3)” value is recorded as 94.21 ng*hr/mL/112 mg Compound A. Further, in series [3] (Mean, 112 mg Compound A oral alone, plasma, healthy subjects), the “DNCmax112 (Day 3)” value came out at 66.35 ng/mL/112 mg Compound A. Besides, the “systemic exposures of Compound A administered orally, effect of cobicistat” value in series [3] (via potent CYP3A inhibition, healthy adult subjects) is “significantly increased”. Besides, the safety and tolerability result in series [4] was “generally safe and well tolerated”.
